target: T1, human PTH1 receptor (Homo sapiens, UniProt Q03431); assay: In vitro cAMP signal activity in HKRK-B7 cells (LLC-PK1 cells overexpressing the human PTH1 receptor); format: cell-based; details: HKRK-B7 cells; compound at 1×10^−3 M; cAMP produced as percentage of that produced by hPTH(1-34) at 100 nM
T1 sequence (Q03431 27-593): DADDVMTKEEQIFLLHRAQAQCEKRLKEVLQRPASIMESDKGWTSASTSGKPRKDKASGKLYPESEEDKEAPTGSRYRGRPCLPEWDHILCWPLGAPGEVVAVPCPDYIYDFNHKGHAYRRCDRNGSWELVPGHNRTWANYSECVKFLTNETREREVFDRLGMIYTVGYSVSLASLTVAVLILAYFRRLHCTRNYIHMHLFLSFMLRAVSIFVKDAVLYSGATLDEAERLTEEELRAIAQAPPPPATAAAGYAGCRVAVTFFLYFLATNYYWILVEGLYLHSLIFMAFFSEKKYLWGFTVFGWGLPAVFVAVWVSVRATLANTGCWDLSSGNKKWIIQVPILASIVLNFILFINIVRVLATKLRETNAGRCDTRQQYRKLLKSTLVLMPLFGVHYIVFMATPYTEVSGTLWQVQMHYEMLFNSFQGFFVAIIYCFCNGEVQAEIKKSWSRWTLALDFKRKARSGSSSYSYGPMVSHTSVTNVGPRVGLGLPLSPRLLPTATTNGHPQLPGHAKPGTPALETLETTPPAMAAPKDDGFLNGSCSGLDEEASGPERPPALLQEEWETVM

Compound	cAMP production activity (%)
CC(=O)Nc1ccc(CCS(=O)(=O)N2CCC3(CC2)N=C(C2CCC(OCCC(F)(F)F)CC2)NC3=O)c(C)c1 (stereo not drawn) [Compound 921, N-[3-methyl-4-(2-{4-oxo-2-[4-(3,3,3-trifluoro-propoxy)-cyclohexyl]-1,3,8-triaza-spiro[4.5]dec-1-ene-8-sulfonyl}-ethyl)-phenyl]-acetamide]	59
CC(=O)Nc1ccc(CCS(=O)(=O)N2CCC3(CC2)N=C([C@H]2CC[C@H](CC(F)(F)F)CC2)NC3=O)c(C)c1 [Compound 922, N-[3-methyl-4-(2-{4-oxo-2-[4-(2,2,2-trifluoro-ethyl)-cyclohexyl]-1,3,8-triaza-spiro[4.5]dec-1-ene-8-sulfonyl}-ethyl)-phenyl]-acetamide]	84
CCC[C@@H]1CCC[C@H](C2=NC3(CCN(S(=O)(=O)CCc4ccc(NC(C)=O)cc4C)CC3)C(=O)N2)C1 [Compound 923, N-(3-methyl-4-{2-[4-oxo-2-((1S,3R)-3-propyl-cyclohexyl)-1,3,8-triaza-spiro[4.5]dec-1-ene-8-sulfonyl]-ethyl}-phenyl)-acetamide]	84
CC(=O)Nc1ccc(CCS(=O)(=O)N2CCC3(CC2)N=C([C@H]2CCC[C@@H](C)C2)NC3=O)c(C)c1 [Compound 924, N-(3-methyl-4-{2-[2-((1S,3R)-3-methyl-cyclohexyl)-4-oxo-1,3,8-triaza-spiro[4.5]dec-1-ene-8-sulfonyl]-ethyl}-phenyl)-acetamide]	76
CC(=O)Nc1ccc(CCS(=O)(=O)N2CCC3(CC2)N=C(C2CCC(C)(C)CC2)NC3=O)c(C)c1 [Compound 925, N-(4-{2-[2-(4,4-dimethyl-cyclohexyl)-4-oxo-1,3,8-triaza-spiro[4.5]dec-1-ene-8-sulfonyl]-ethyl}-3-methyl-phenyl)-acetamide]	69
CC(=O)Nc1ccc(CCS(=O)(=O)N2CCC3(CC2)N=C(C2CC(C)(C)CC(C)(C)C2)NC3=O)c(C)c1 [Compound 926, N-(3-methyl-4-{2-[4-oxo-2-(3,3,5,5-tetramethyl-cyclohexyl)-1,3,8-triaza-spiro[4.5]dec-1-ene-8-sulfonyl]-ethyl}-phenyl)-acetamide]	102
COCCC1CCC(C2=NC3(CCN(S(=O)(=O)CCc4ccc(NC(C)=O)cc4C)CC3)C(=O)N2)CC1 (stereo not drawn) [Compound 927, N-[4-(2-{2-[4-(2-Methoxy-ethyl)-cyclohexyl]-4-oxo-1,3,8-triaza-spiro[4.5]dec-1-ene-8-sulfonyl}-ethyl)-3-methyl-phenyl]-acetamide]	80
Cc1cc(CNC(=O)OC(C)(C)C)ccc1CCS(=O)(=O)N1CCC2(CC1)N=C(C1CCC(CCC(F)(F)F)CC1)NC2=O (stereo not drawn) [Compound 928, [3-Methyl-4-(2-{4-oxo-2-[4-(3,3,3-trifluoro-propyl)-cyclohexyl]-1,3,8-triaza-spiro[4.5]dec-1-ene-8-sulfonyl}-ethyl)-benzyl]-carbamic acid tert-butyl ester]	51
Cc1cc(N(CCO)C(=O)C(C)C)ccc1CCS(=O)(=O)N1CCC2(CC1)N=C(c1cccc(OC(F)(F)F)c1)NC2=O [Compound 929, N-(2-Hydroxy-ethyl)-N-(3-methyl-4-{2-[4-oxo-2-(3-trifluoromethoxy-phenyl)-1,3,8-triaza-spiro[4.5]dec-1-ene-8-sulfonyl]-ethyl}-phenyl)-isobutylamide]	76
Cc1cc(N(CCO)C(=O)CO)ccc1CCS(=O)(=O)N1CCC2(CC1)N=C(c1cccc(OC(F)(F)F)c1)NC2=O [Compound 930, 2-Hydroxy-N-(2-hydroxy-ethyl)-N-(3-methyl-4-{2-[4-oxo-2-(3-trifluoromethoxy-phenyl)-1,3,8-triaza-spiro[4.5]dec-1-ene-8-sulfonyl]-ethyl}-phenyl)-acetamide]	92
Cc1cc(N(C)C(=O)C(F)(F)F)cc(C)c1CCS(=O)(=O)N1CCC2(CC1)N=C([C@H]1CC[C@H](C)CC1)NC2=O [Compound 931, N-(3,5-Dimethyl-4-{2-[2-(4-methyl-cyclohexyl)-4-oxo-1,3,8-triaza-spiro[4.5]dec-1-ene-8-sulfonyl]-ethyl}-phenyl)-2,2,2-trifluoro-N-methyl-acetamide]	72
Cc1cc(N(C)C(=O)C(F)(F)F)cc(C)c1CCS(=O)(=O)N1CCC2(CC1)N=C(C1CCCC(C)C1)NC2=O (stereo not drawn) [Compound 932, N-(3,5-Dimethyl-4-{2-[2-(3-methyl-cyclohexyl)-4-oxo-1,3,8-triaza-spiro[4.5]dec-1-ene-8-sulfonyl]-ethyl}-phenyl)-2,2,2-trifluoro-N-methyl-acetamide]	66
Cc1cc(N(C)C(=O)C(F)(F)F)cc(C)c1CCS(=O)(=O)N1CCC2(CC1)N=C(C1CC(C)(C)CC(C)(C)C1)NC2=O [Compound 933, N-(3,5-dimethyl-4-{2-[4-oxo-2-(3,3,5,5-tetramethyl-cyclohexyl)-1,3,8-triaza-spiro[4.5]dec-1-ene-8-sulfonyl]-ethyl}-phenyl)-2,2,2-trifluoro-N-methyl-acetamide]	60
Cc1cc(N(C)C(N)=O)cc(C)c1CCS(=O)(=O)N1CCC2(CC1)N=C(C1CCCCCC1)NC2=O [Compound 934, 1-{4-[2-(2-Cycloheptyl-4-oxo-1,3,8-triaza-spiro[4.5]dec-1-ene-8-sulfonyl)-ethyl]-3,5-dimethyl-phenyl}-1-methyl-urea]	87
Cc1cc(N(C)C(N)=O)cc(C)c1CCS(=O)(=O)N1CCC2(CC1)N=C(c1cccc(OC(F)(F)F)c1)NC2=O [Compound 935, 1-(3,5-dimethyl-4-{2-[4-oxo-2-(3-trifluoromethoxy-phenyl)-1,3,8-triaza-spiro[4.5]dec-1-ene-8-sulfonyl]-ethyl}-phenyl)-1-methyl-urea]	112
Cc1cc(N(C)C(N)=O)cc(C)c1CCS(=O)(=O)N1CCC2(CC1)N=C(C1CCC(CC(F)(F)F)CC1)NC2=O (stereo not drawn) [Compound 936, 1-[3,5-Dimethyl-4-(2-{4-oxo-2-[4-(2,2,2-trifluoro-ethyl)-cyclohexyl]-1,3,8-triaza-spiro[4.5]dec-1-ene-8-sulfonyl}-ethyl)-phenyl]-1-methyl-urea]	98
Cc1cc(N(C)C(N)=O)c(Cl)c(C)c1CCS(=O)(=O)N1CCC2(CC1)N=C(C1CCC(CC(F)(F)F)CC1)NC2=O (stereo not drawn) [Compound 937, 1-[2-chloro-3,5-dimethyl-4-(2-{4-oxo-2-[4-(2,2,2-trifluoro-ethyl)-cyclohexyl]-1,3,8-triaza-spiro[4.5]dec-1-ene-8-sulfonyl}-ethyl)-phenyl]-1-methyl-urea]	120
Cc1cc(N(C)C(N)=O)cc(C)c1CCS(=O)(=O)N1CCC2(CC1)N=C(C1CCC(C)(C)CC1)NC2=O [Compound 938, 1-(4-{2-[2-(4,4-dimethyl-cyclohexyl)-4-oxo-1,3,8-triaza-spiro[4.5]dec-1-ene-8-sulfonyl]-ethyl}-3,5-dimethyl-phenyl)-1-methyl-urea]	97

Source: patent US9169254B2, “Spiroimidazolone derivative” (Chugai Seiyaku Kabushiki Kaisha, priority 2009, dated 2015)
